Several values for one entry are separate records, joined by “and”; a condition that tells them apart may be missing. Equal values may be shown once. Marks after values point to notes of the source that are not given here.
Tests used:
[1] = system: CD-1 mice; test: Nociceptive behavior model elicited by intraplantar injection of formalin; assay type: in vivo; settings: 200 mg/kg oral
Protocol: Mice (n=6 per group) were habituated under inverted Plexiglas observation chamber for 30 minutes to allow them to acclimatize to their surroundings. […] Mice were immediately transferred to their individual observational chamber. […] Mirrors positioned behind the chambers enabled observation of the right hind paw when it was obscured from direct view. […] These behavioral reactions observed for the first five minutes are due to direct action of the irritant on sensory nerve endings where is believed to be as a result of inflammation in the later phase. […] Mice were treated with curcumin (50, 100, 150 or 200 mg/kg) or ibuprofen (200 mg/kg) orally half an hour before intraplantar formalin injection.

[2] = system: Lewis rats; test: Carrageenan-induced rat paw edema model (paw edema and pain sensitivity); assay type: in vivo; settings: for Pain sensitivity (Analgesia), percent change vs. vehicle, 1 hr / Paw Edema (Inflammation), percent change vs. vehicle, 1 hr: 1 hr after treatment; for Pain sensitivity (Analgesia), percent change vs. vehicle, 5 hr / Paw Edema (Inflammation), percent change vs. vehicle, 5 hr: 5 hr after treatment; for Pain sensitivity, percent change of vehicle / Paw edema, percent change of vehicle: 200 mg/kg oral 1 hr after carrageenan, female Lewis rats, 200 mg/kg
Protocol: Local inflammation was induced by intraplantar injection of carrageenan λ (Sigma, St. Louis, Mo.; 100 μl of 1% [w/v] in saline) into the plantar surface of right hind paw of sedated rat (with 2.5% isoflurane) at time 0 (T=0) (Gamache et al., J Neurosurg. 65:679, 1986; Guay et al., J. Biol. Chem. 279:24866, 2004; Chou et al., Anesth. Analg. 97:1724, 2003). Rats were acclimated in a procedure room for 20-30 minutes before each measurement was taken. Allodynia was evaluated by measuring responsiveness to the tip of a Randell-Selitto paw pressure test applied perpendicular to the central plantar surface of the right hind paw. A positive response to the applied pressure, noted by sharp withdrawal of the paw, was recorded automatically by an electronic Von Frey Anesthesiometer (2390 series Electrovonfrey, IITC, Woodland Hills, Calif.) (Vivancos et al., Braz. J. Med. Biol. Res. 37:391, 2004). Mechanical allodynia was evaluated before carrageenan inoculation, and thereafter at 1 hr, 2 hr, 4 hr and 6 hr. Paw edema volume was measured with the use of Plethysmometer (IITC, Woodland Hills, Calif.; Model 520) at time 0 (before carrageenan), and then 1 hr, 2 hr, 4 hr, and 6 hr after carrageenan injection. Animals (N=5 per group) were orally gavaged with a positive control ibuprofen (Spectrum Chemical MFG, Gardena, Calif.) (100 or 200 mg/kg); test articles such as: extracts, and combinations of extracts at various doses from 100, 200, 300 to 400 mg/kg and vehicle control (propylene glycol) were given 1 hour after carrageenan inoculation unless specified otherwise.

[3] = 200 mg/kg oral, listed as ibuprofen
[4] = 200 mg/kg oral, 3 hr after treatment

CC(C)Cc1ccc(C(C)C(=O)O)cc1 (stereo not drawn) [Ibuprofen]
Pain Sensitivity 20-40 Minutes after Formalin Injection % ↓ vs. Vehicle [1]: 63.5% | Pain sensitivity (Analgesia), percent change vs. vehicle, 1 hr ([2]; 200 mg/kg oral): 55.6* % and 55.1* % and 52.9* % | Paw Edema (Inflammation), percent change vs. vehicle, 1 hr ([2]; 200 mg/kg oral): 43.5* % and 39.5* % and 44.6* % | Pain sensitivity (Analgesia), percent change vs. vehicle, 1 hr [2, 3]: 55.1% | Paw Edema (Inflammation), percent change vs. vehicle, 1 hr [2, 3]: 39.5% | Pain sensitivity (Analgesia), percent change vs. vehicle, 3 hr [2, 4]: 62.7* % and 70.3* % and 62.5* % | Paw Edema (Inflammation), percent change vs. vehicle, 3 hr [2, 4]: 58.0* % and 50.4* % and 54.9* % | Paw Edema (Inflammation), percent change vs. vehicle, 3 hr ([2]; 200 mg/kg oral, 3 hr after treatment, listed as ibuprofen): 50.4% | Pain sensitivity (Analgesia), percent change vs. vehicle, 5 hr ([2]; 200 mg/kg oral): 44.6* % and 50.8* % and 48.8* % | Paw Edema (Inflammation), percent change vs. vehicle, 5 hr ([2]; 200 mg/kg oral): 50.3* % and 46.6* % and 50.0* % | Pain sensitivity (Analgesia), percent change vs. vehicle, 5 hr [2, 3]: 50.8% | Paw Edema (Inflammation), percent change vs. vehicle, 5 hr [2, 3]: 46.6% | Pain sensitivity, percent change of vehicle ([2]; 1 hr): 57.1* % and 55.4* % and 56.4* % and 56.1* % and 53.7* % and 52.4* % and 58.6* % | Paw edema, percent change of vehicle ([2]; 1 hr): 53.2* % and 51.6* % and 53.9* % and 57.2* % and 54.2* % and 53.0* % and 52.5* % | Pain sensitivity, percent change of vehicle ([2]; 3 hr): 61.5* % and 65.9* % and 62.2* % and 59.7* % and 64.0* % | Paw edema, percent change of vehicle ([2]; 3 hr): 64.3* % and 61.9* % and 59.0* % and 67.6* % and 57.7* % and 60.1* % and 62.9* % | Pain sensitivity, percent change of vehicle ([2]; 5 hr): 44.3* % and 49.3* % and 45.0* % and 47.9* % and 47.5* % and 43.3* % and 50.7* % | Paw edema, percent change of vehicle ([2]; 5 hr): 50.6* % and 50.0* % and 52.6* % and 53.5* % and 48.6* % and 51.3* % and 51.6* %
